Measurements published in patent publication US20260294883A1, “PHARMACEUTICAL COMPOSITION FOR THE TREATMENT OF POST-TRAUMATIC STRESS SYNDROME” (KINNOV THERAPEUTICS, priority 2022, published 2026).
Where a name gives a salt, the structure may show the parent alone.

Legend:
[1] = conditioned fear test, Example 1 (freezing index 3 days after conditioning); type: in vivo, rodents; settings: for p (freezing index, versus control group) / Freezing index / Freezing index, % vs witness: 3 days after conditioning, n = 10; for Freezing index: Mean ± SEM, witnesses 62.12 ± 9.93; for Freezing index, % vs witness: witnesses 100.00
Description: (§1) The conditioned fear test in rodents is recognized as a relevant preclinical model for the study of post-traumatic stress disorders.
(§2) During this test, animals are placed for a 4.5-minute conditioning session in a square box with a stainless steel mesh floor connected to a shock generator.
(§3) A conditioned stimulus (CS) consisting of a sound (80 dB, 2800 Hz, 30 seconds) is presented twice (at 1.5 min and then at 3.5 min).
(§4) An unconditioned stimulus consisting of an electric shock to the paws is delivered at the end of each CS (2 seconds, 0.6 mA).
(§5) The animals were then subjected to memory test sessions of the stressful event on different days after the session of packaging. The sessions of test of memorization (duration of 6 min) comprise a first period of 3 minutes without none CS presentation (period CS−) followed by a second 3 minute period during which the CS is presented (period CS+).
(§6) The sound stimulus alone triggers conditioned fear behavior. In rodents, this behavior is manifested by a prostrate attitude, an immobility behavior (i.e. «freezing») that is distinguished from the animal's exploratory behavior when placed in an enclosure for a short period.
(§7) The analyzed data are the time of immobility during the period CS− and during the period CS+. The freezing index is defined as the difference in immobility time between the period with the sound stimulus and the period without the sound. Therefore, the higher this index, the greater the post-traumatic stress state.
(§8) The «sham» group received no shock. The treatments were administered immediately after the conditioning session, and then 30 minutes before each conditioned fear session (no shock, but with the conditioned stimulus).
(§9) This test measures the effect of stress and its environment and its memorization (i.e. extinction).

[2] = Azevedo et al., Neuropharmacology 164 (2020) 107912; cited from earlier work
[3] = conditioned fear test, Example 3 (comparison with paroxetine); type: in vivo, rodents; settings: for Freezing index Day 1 / Freezing index Day 3 / Freezing index Day 4: n = 10; for Freezing index Day 1: witnesses 53.3 ± 5.7; for Freezing index Day 3: witnesses 38.1 ± 8.7; for Freezing index Day 4: Day 4, treatment stopped after day 3, witnesses 56.2 ± 9.8
Description: as §1, §2, §3, §4, §5, §6, §7, §8, §9
The protocol is identical to that of Example 1 above. In this example, the conditioned fear sessions and the freezing measurement are carried out on days 1, 3 and 4 after the conditioning session. The treatment is stopped after day 3, so that during the 4th observation session, no treatment is administered.

## COc1cc2nc(N3CCN(C(=O)c4ccco4)CC3)nc(N)c2cc1OC [Prazosin, 2-[4-(2-furoyl)piperazin-1-yl]-6,7-dimethoxyquinazolin-4-amine]
[1]; 0.5 mg/kg
  p (freezing index, versus control group): ns
  Freezing index: 41.97 ± 5.82 s
  Freezing index, % vs witness: 67.57%
[1]; 1 mg/kg
  p (freezing index, versus control group): ns
  Freezing index: 35.29 ± 12.22 s
  Freezing index, % vs witness: 56.80%
[1]; Example 1 conclusion, conditioned fear test
  effect on post-traumatic stress syndrome, in words: does not allow the treatment of post-traumatic stress syndrome

## CN1CCC(=C2c3ccccc3C=Cc3ccccc32)CC1 [Cyproheptadine, 4-(5-H-dibenzo[a,d]cyclohepten-5-ylidene)-1-methylpiperidine hydrochloride]
[1]; 0.5 mg/kg
  p (freezing index, versus control group): ns
  Freezing index: 38.68 ± 5.84 s
  Freezing index, % vs witness: 62.28%

## COc1ccccc1N1CCN(CCn2cnc3ccccc3c2=O)CC1 [ACH-000029]
[2]
  efficacy versus prazosin alone: more effective than prazosin alone

## Fc1ccc([C@@H]2CCNC[C@H]2COc2ccc3c(c2)OCO3)cc1 [Paroxetine]
[3]; 4 mg/kg
  Freezing index Day 1: 64.5 s
  Freezing index Day 3: 44.3 s
  Freezing index Day 4: 38.9 s
[3]; 8 mg/kg
  Freezing index Day 1: 51.3 s
  Freezing index Day 3: 33.1 s
  Freezing index Day 4: 50.3 s
[3]; Example 3 conclusion
  effect on the memory component and impact of the stressful event / anxious reaction, in words: no significant effect
